Measurements from ChEMBL document CHEMBL1201862, “PubChem BioAssay data set” (2004).
Active and inactive are the calls of the source.

What was measured:
Caspase-3 = biological target: T1, Caspase-3 (Homo sapiens, UniProt P42574); format: functional;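 note: Dose-response selectivity test against caspase-3 for candidate inhibitors of sentrin-specific proteases (SENPs)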
T1 sequence (P42574 whole entry): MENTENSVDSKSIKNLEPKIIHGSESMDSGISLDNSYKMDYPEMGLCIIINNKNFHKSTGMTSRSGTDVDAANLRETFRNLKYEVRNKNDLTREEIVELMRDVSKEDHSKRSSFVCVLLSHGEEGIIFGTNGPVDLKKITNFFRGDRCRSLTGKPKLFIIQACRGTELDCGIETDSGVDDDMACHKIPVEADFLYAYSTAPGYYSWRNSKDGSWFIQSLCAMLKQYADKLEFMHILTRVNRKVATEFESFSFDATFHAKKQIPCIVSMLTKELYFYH

[1] = biological target: T2, Sentrin-specific protease 6 (Homo sapiens, UniProt Q9GZR1); format: functional;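 note: Luminescence-based dose-response confirmatory assay of SENP6 inhibition, following up an ultra-high-throughput screen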
T2 sequence (Q9GZR1 whole entry): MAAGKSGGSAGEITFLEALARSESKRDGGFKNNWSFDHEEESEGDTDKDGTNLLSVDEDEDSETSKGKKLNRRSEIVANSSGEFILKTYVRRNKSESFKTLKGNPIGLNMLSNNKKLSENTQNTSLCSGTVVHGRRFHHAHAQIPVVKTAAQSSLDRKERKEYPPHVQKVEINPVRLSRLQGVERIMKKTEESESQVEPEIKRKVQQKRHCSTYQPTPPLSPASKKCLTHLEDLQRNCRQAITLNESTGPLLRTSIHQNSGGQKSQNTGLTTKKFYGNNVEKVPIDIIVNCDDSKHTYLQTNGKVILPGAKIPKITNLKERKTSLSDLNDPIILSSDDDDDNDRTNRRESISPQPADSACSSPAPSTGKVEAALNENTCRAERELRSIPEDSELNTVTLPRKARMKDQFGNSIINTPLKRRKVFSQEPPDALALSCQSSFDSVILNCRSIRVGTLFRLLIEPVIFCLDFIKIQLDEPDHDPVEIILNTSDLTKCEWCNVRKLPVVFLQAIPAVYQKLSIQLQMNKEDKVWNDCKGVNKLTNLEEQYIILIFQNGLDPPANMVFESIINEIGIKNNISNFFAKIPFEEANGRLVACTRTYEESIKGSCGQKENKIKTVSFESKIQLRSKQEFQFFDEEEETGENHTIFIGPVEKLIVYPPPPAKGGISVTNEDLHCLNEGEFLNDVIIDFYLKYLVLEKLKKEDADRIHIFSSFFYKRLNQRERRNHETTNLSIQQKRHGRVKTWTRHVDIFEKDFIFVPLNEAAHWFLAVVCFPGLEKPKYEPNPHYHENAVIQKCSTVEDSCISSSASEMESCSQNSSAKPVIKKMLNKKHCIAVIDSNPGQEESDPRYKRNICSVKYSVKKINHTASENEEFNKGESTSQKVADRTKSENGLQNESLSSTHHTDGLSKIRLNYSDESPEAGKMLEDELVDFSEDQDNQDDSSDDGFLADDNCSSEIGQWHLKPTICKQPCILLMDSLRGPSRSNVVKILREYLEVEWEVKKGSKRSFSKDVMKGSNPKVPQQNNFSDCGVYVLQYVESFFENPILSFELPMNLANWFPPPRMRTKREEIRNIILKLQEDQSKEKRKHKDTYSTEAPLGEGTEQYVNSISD

[2] = biological target: T3, Sentrin-specific protease 8 (Homo sapiens, UniProt Q96LD8); format: functional
T3 sequence (Q96LD8 whole entry): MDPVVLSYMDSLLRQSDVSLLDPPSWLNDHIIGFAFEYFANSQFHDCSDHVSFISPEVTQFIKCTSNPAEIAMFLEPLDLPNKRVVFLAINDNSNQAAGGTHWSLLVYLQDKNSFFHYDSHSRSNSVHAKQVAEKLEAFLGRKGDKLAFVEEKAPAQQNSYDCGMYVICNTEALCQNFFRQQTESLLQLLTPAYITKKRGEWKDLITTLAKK

[3] = biological target: T4, Mitochondrial peptide methionine sulfoxide reductase (Bos taurus, UniProt P54149); format: functional;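 note: absorbance read-out, biochemical high-throughput dose-response screen for MsrA inhibitors, confirmatory; recombinant bovine MsrA coupled to E. coli TrxB with NADPH and selenocystamine; potency is for inhibitors of MsrA activity on DMSO substrate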
T4 sequence (P54149 whole entry): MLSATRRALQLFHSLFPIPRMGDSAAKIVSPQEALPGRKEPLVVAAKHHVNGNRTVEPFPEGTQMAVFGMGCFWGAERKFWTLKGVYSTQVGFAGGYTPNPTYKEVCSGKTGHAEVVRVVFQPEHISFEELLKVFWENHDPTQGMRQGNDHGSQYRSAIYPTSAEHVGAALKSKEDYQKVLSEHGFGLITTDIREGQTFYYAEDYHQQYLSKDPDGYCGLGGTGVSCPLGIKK

[4] = biological target: T5, Tyrosyl-DNA phosphodiesterase 2 (Homo sapiens, UniProt O95551); assay: potency against TDP2 phosphodiesterase activity – biochemical, epi absorbance, IC50, dose response (AID 743297)
T5 sequence (O95551 whole entry): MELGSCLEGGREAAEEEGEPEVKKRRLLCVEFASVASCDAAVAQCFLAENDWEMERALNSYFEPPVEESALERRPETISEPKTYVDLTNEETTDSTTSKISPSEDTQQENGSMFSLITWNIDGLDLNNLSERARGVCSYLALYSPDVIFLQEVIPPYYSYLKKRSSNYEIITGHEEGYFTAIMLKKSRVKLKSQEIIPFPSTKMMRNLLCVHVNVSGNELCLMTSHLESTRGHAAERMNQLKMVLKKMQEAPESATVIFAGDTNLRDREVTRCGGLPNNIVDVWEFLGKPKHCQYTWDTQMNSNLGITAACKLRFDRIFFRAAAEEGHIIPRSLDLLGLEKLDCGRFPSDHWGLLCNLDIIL

[5] = biological target: Luciferin 4-monooxygenase (Photinus pyralis, UniProt P08659); assay: inhibition of purified Photinus pyralis luciferase – biochemical, luminescence, dose response (AID 1891)
[6] = biological target: Kappa-type opioid receptor (Homo sapiens, UniProt P41145); format: functional
[7] = reduction of Shn3 3'UTR-driven luciferase in osteoblasts – cell-based, Clone20 osteoblasts, firefly luciferase, cherry-picked, dose response (AID 624132); format: functional;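 note: firefly luciferase luminescence from reporter carrying the Shn3 3'UTR in osteoblasts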
[8] = loss of viability in HepG2 cells – cell-based, CellTiter-Glo, cherry-picked, cytotoxicity control for Shn3 inhibitor project, dose response (AID 624134); format: functional
Genome polyprotein = Genome polyprotein (dengue virus type 2, UniProt P29990); assay: flavivirus cap methylation enzyme inhibition – biochemical, confirmation dose response, primary screen (AID 588689); format: functional
[9] = biological target: T3, Sentrin-specific protease 8; format: functional; remark: listed apart in the source

Sequence of Luciferin 4-monooxygenase (P08659 whole entry): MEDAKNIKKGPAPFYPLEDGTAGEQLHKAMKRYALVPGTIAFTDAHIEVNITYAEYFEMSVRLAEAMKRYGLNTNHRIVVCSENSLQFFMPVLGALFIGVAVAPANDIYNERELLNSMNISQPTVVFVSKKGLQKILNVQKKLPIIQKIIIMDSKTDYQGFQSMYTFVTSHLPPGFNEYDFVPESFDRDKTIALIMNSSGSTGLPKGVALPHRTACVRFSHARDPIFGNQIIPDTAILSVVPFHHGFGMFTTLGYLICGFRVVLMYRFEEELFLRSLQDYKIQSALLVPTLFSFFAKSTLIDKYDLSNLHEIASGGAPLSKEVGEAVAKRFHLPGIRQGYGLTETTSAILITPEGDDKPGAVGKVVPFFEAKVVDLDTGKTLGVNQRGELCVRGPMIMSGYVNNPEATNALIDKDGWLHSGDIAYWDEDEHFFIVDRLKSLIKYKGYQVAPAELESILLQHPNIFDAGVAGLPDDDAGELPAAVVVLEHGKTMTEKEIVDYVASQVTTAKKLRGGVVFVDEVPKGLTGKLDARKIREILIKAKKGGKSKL
Sequence of Genome polyprotein (P29990 2492-3391 limits assumed): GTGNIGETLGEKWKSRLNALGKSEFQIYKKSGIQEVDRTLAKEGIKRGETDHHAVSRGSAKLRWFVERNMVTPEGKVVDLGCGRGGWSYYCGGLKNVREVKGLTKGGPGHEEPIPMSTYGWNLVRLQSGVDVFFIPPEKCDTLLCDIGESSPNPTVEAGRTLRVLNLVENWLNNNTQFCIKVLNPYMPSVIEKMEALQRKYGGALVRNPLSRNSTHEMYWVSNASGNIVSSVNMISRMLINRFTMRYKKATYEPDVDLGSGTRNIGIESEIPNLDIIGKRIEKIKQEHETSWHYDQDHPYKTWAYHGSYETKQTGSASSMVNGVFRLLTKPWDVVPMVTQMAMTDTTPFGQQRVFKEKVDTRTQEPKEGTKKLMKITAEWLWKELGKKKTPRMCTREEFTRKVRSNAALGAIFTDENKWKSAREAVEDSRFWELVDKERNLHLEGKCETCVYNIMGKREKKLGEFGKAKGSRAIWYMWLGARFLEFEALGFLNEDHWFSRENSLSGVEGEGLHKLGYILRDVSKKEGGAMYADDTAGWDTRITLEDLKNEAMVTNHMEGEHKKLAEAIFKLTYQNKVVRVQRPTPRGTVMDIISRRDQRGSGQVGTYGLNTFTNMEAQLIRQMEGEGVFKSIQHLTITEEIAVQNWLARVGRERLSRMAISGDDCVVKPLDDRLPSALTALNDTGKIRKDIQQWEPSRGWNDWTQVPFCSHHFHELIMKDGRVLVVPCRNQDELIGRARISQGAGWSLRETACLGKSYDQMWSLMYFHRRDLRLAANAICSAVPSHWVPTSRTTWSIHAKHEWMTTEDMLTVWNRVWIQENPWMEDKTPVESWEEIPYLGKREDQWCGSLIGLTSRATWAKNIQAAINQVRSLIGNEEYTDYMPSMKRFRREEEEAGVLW
Sequence of Kappa-type opioid receptor (P41145 whole entry): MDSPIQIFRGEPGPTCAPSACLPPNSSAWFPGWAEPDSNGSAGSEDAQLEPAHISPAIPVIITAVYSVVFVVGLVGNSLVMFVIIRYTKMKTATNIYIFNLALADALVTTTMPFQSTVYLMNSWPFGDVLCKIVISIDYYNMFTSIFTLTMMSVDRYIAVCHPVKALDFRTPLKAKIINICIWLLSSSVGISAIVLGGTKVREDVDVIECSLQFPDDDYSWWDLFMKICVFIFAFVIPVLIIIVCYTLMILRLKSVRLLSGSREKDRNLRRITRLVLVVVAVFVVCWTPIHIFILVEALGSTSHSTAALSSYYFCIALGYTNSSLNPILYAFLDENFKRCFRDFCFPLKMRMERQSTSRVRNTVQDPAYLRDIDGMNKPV

Row | Compound | IC50 (Caspase-3) | IC50 [1] | IC50 [2] | IC50 [3] | IC50 [4] | EC50 [5] | IC50 [6] | AC50 [7] | AC50 [8] | IC50 (Genome polyprotein) | IC50 [9]
1 | Cc1ccc(S(=O)(=O)/N=C2\C=C(Nc3cccc(C(=O)O)c3)C(=O)c3ccccc32)c(C)c1 | 11.2 µM (active) | 0.819 µM (active) | 1.78 µM (active) | 74.5 µM (inactive) | 2.58 µM (active) |  |  |  |  |  | 
2 | COc1ccc(NC(=O)/C(Cl)=C(/Cl)[S+]([O-])Cc2ccccc2)cn1 (stereo not given) |  |  |  |  |  | > 112 µM (not active) | 7.1 µM (active) | < 0.26 µM (active) | 5.52 µM (active) |  | 
3 | Nc1ccc(N2CCCCC2)c2nonc12 | 36.9 µM (active) | 9.43 µM (active) | 10.2 µM (active) |  | 79.7 µM (inactive) |  |  |  |  | 40.6 µM (active) | 1.06 µM (active)
